Measured values from patent US20210108247A1, “CHEMOENZYMATIC SYNTHESIS OF TREHALOSE ANALOGUES” (Central Michigan University, priority 2014, published 2021).

Experiments:
Format in all cases: cell-based
M. smegmatis wild type [1] = experiment: Uptake of fluoro trehalose, GC-MS of cytosolic extracts; conditions: 100 μM, 1 h, 37° C.
Description: Cultures of M. smegmatis wild type, ΔsugC mutant, or ΔsugC::sugC complement were generated by inoculating a single colony from a freshly streaked agar plate (with appropriate antibiotic, if needed) into 3 mL Middlebrook 7H9 liquid medium supplemented with ADC (albumin, dextrose, and catalase), 0.5% glycerol, and 0.05% Tween-80 in a culture tube. Starter cultures were incubated at 37° C. with shaking until reaching log phase. Cells were then cultured at 37° C. in the presence or absence of 2-, 3-, 4-, or 6-fluoro trehalose (100 μM) in 7H9 liquid medium for 1 h, then centrifuged and washed (5000 rpm for 5 min) three times in ultrapure water. The washed cells were resuspended in ultrapure water and boiled for 4 h, then centrifuged. The supernatant was collected and dried on a speedvac to yield water-soluble cytosolic metabolites (e.g., trehalose and fluoro trehaloses, if present), which were subsequently trimethylsilyl (TMS)-derivatized using N-Methyl-N-(trimethylsilyl) trifluoroacetamide (MSTFA) in pyridine and analyzed by gas chromatography-mass spectrometry (GC-MS).

[2] = system: M. smegmatis ΔsugC mutant; experiment: One-pot metabolic labeling and fluorescence imaging (CuAAC with alkyne fluorophore); conditions: ΔsugC mutant missing the trehalose transporter; 25 μM, 4 h
Description: One-Pot Metabolic Labeling and Imaging of M. smegmatis: Cultures of M. smegmatis wild type, ΔsugC mutant, or ΔsugC::sugC complement were generated by inoculating a single colony from a freshly streaked agar plate (with appropriate antibiotic, if needed) into 3 mL Middlebrook 7H9 liquid medium supplemented with ADC (albumin, dextrose, and catalase), 0.5% glycerol, and 0.05% Tween-80 in a culture tube. Starter cultures were incubated at 37° C. with shaking until reaching log phase. Meanwhile, using the procedure described above, a 50 μL TreT reaction employing 6-GlcAz (10 mM) as the substrate was carried out to synthesize 6-TreAz (+TreT sample). A control reaction lacking TreT was run in parallel (−TreT control). […] Given the observed quantitative conversion for this reaction (FIG. 1B, Entry 16), a 6-TreAz concentration of 10 mM was assumed in the +TreT sample. […] Fluorescence imaging was performed using a GFP LED light cube (maximum excitation/emission=470/510 nm). […]
The same experiments were performed in M. smegmatis ΔsugC, a mutant missing the trehalose transporter required for 6-TreAz uptake and labeling, as well as its complement, M. smegmatis ΔsugC::sugC. Fluorescence was abolished in the ΔsugC mutant and restored in the complement, confirming that 6-TreAz labeling proceeded via the trehalose transporter pathway.

[3] = system: M. smegmatis ΔsugC::sugC complement; experiment: as above; conditions: 25 μM, 4 h
Description: One-Pot Metabolic Labeling and Imaging of M. smegmatis: Cultures of M. smegmatis wild type, ΔsugC mutant, or ΔsugC::sugC complement were generated by inoculating a single colony from a freshly streaked agar plate (with appropriate antibiotic, if needed) into 3 mL Middlebrook 7H9 liquid medium supplemented with ADC (albumin, dextrose, and catalase), 0.5% glycerol, and 0.05% Tween-80 in a culture tube. Starter cultures were incubated at 37° C. with shaking until reaching log phase. Meanwhile, using the procedure described above, a 50 μL TreT reaction employing 6-GlcAz (10 mM) as the substrate was carried out to synthesize 6-TreAz (+TreT sample). A control reaction lacking TreT was run in parallel (−TreT control). After incubation at 70° C. for 1 h, the reactions were stopped by placing on ice. Given the observed quantitative conversion for this reaction (FIG. 1B, Entry 16), a 6-TreAz concentration of 10 mM was assumed in the +TreT sample. For the −TreT control, a 6-GcAz concentration of 10 mM was assumed. The aqueous reaction mixtures were directly diluted into M. smegmatis wild type, ΔsugC mutant, or ΔsugC::sugC complement growing in 7H9 liquid medium to a final azido sugar concentration of 25 μM and a culture density of OD600=0.15. […] Fluorescence imaging was performed using a GFP LED light cube (maximum excitation/emission=470/510 nm). […]

M. smegmatis wild type [4] = experiment: as above; conditions: +TreT reaction mixture, 25 μM azido sugar, 4 h, 37° C.

Row | SMILES | fluoro trehalose derivative in cytosolic extracts (uptake) (M. smegmatis wild type [1]) | fluorescence labeling of bacteria (fluorescence microscopy) [2] | fluorescence labeling of bacteria (fluorescence microscopy) [3] | fluorescence labeling of bacteria (fluorescence microscopy) (M. smegmatis wild type [4])
1 | OC[C@H]1O[C@H](O[C@H]2O[C@H](CO)[C@@H](O)[C@H](F)[C@H]2O)[C@H](O)[C@@H](O)[C@@H]1O [3-fluoro trehalose, 3-Deoxy-3-fluoro-α,α-D-trehalose] | observed in cytosolic extracts |  |  | 
2 | [N-]=[N+]=NC[C@H]1O[C@H](O[C@H]2O[C@H](CO)[C@@H](O)[C@H](O)[C@H]2O)[C@H](O)[C@@H](O)[C@@H]1O [6-TreAz, 6-Azido-6-Deoxy-α,α-D-trehalose] |  | abolished | restored | strong labeling
3 | OC[C@H]1O[C@H](O[C@H]2O[C@H](CF)[C@@H](O)[C@H](O)[C@H]2O)[C@H](O)[C@@H](O)[C@@H]1O [6-fluoro trehalose] | observed in cytosolic extracts |  |  | 
4 | OC[C@H]1O[C@H](O[C@H]2O[C@H](CO)[C@@H](O)[C@H](O)[C@H]2F)[C@H](O)[C@@H](O)[C@@H]1O [2-fluoro trehalose, 2-Deoxy-2-fluoro-α,α-D-trehalose] | observed in cytosolic extracts |  |  | 
